One data set deals with Caco-2. Kind of data set: Increase in permeability of lucifer yellow dye across human Caco2 cells. The format is functional, cell-based.
Data set [1] has as its system MDCK. Description: Increase in permeability of lucifer yellow dye across MDCK cells. The format is functional, cell-based. The conditions noted are these: Canis lupus familiaris.
Data set [2] deals with MDCK. Kind of data set: Cytotoxicity against MDCK cells assessed as reduction in cell viability. The format is cell-based, Canis lupus familiaris. Details: concentration or dose not given beside the values. The conditions noted are these: dog.
A short description of data set [3]: Cytotoxicity against human Caco2 cells assessed as reduction in cell viability. In kind it is cell-based. The note with it: Caco-2.
Data set [4] can be described thus: Apparent permeability from apical to basolateral side in human Caco2 cells at 50 uM over 2 hrs by isocratic reverse phase HPLC method. The format is ADME, cell-based. The conditions noted are these: Caco-2. A general note: Caco-2 cells form a polarised layer with tight junctions and transporters.
A short description of data set [5]: Apparent permeability from basolateral to apical side in human Caco2 cells at 50 uM over 2 hrs by isocratic reverse phase HPLC method. The format is ADME, cell-based. The conditions noted are these: Caco-2.
Data set [6] is described as follows: Permeability ratio, ratio of permeability from apical to basolateral side over basolateral to apical side in human Caco2 cells at 50 uM over 2 hrs by isocratic reverse phase HPLC method. The format is ADME, cell-based. The note with it: caco-2, 2 h.
Data set [7] can be described thus: Efflux ratio, ratio of permeability from basolateral to apical side over apical to basolateral side in human Caco2 cells at 50 uM over 2 hrs by isocratic reverse phase HPLC method. In kind it is ADME, cell-based. The note with it: Caco-2.
The nature of data set [8]: Apparent permeability from apical to basolateral side in MDCK cells at 50 uM over 2 hrs by isocratic reverse phase HPLC method. The note with it: dog. The format is ADME, cell-based, Canis lupus familiaris.
Data set [9] is described as follows: Apparent permeability from basolateral to apical side in MDCK cells at 50 uM over 2 hrs by isocratic reverse phase HPLC method. In kind it is ADME, cell-based, Canis lupus familiaris. The conditions noted are these: dog.
For data set [10], the system named is MDCK. Kind of data set: Permeability ratio, ratio of permeability from apical to basolateral side over basolateral to apical side in MDCK cells at 50 uM over 2 hrs by isocratic reverse phase HPLC method. The format is ADME, cell-based, Canis lupus familiaris. The conditions noted are these: dog.
Data set [11] is described as follows: (§1) Permeability ratio, ratio of permeability from basolateral to apical side over apical to basolateral side in MDCK cells at 50 uM over 2 hrs by isocratic reverse phase HPLC method. The format is ADME, cell-based, Canis lupus familiaris. The note with it: dog, MDCK.
Data set [12] can be described thus: Ratio of apparent permeability from apical to basolateral side in MDCK cells to apparent permeability from apical to basolateral side in human Caco2 cells. The format is ADME, cell-based. The conditions noted are these: caco-2.
A short description of data set [13]: Ratio of apparent permeability from basolateral to apical side in MDCK cells to apparent permeability from basolateral to apical side in human Caco2 cells. The note with it: caco-2. The format is ADME, cell-based.
Data set [14] deals with MDCK. The data set is described as §1. The format is ADME, cell-based, Canis lupus familiaris. The conditions noted are these: dog, mdck, 2 h, 50 µM.

The results in this text go back to ChEMBL document CHEMBL3351337, “Cytotoxic 1,5-diaryl-3-oxo-1,5-pentadienes: an assessment and comparison of membrane permeability using Caco-2 and MDCK monolayers” (Bioorg Med Chem Lett, 2014).

Calls of active or inactive are those of the source. The rule behind the calls is not given here.

With `COc1ccc(/C=C2\CNC/C(=C\c3ccc(OC)c(OC)c3)C2=O)cc1OC`, in the data set with Caco-2, the outcome was inactive. For the same molecule, the outcome with MDCK [1] was Active. Further, the Activity with MDCK [2] is recorded as 4%; in [3], “Non-toxic”. In addition, the figures for the Papp A→B at 2 h, 50 µM in data set [4] and in data set [8] were 14.4 ×10⁻⁶ cm/s and 22.2 ×10⁻⁶ cm/s, respectively. Moreover, the Papp B→A (as a rule, how fast a substance crosses the layer from the basolateral side) at 2 h, 50 µM turned out to be 4.12 ×10⁻⁶ cm/s in data set [5] and 8.7 ×10⁻⁶ cm/s in data set [9]. Besides, the Ratio in [6] is reported as 3.5; in the data set on MDCK [10], 2.55; in data set [12], 1.54; in data set [13] it was 2.11. Also, the efflux ratio (usually the permeability from basolateral to apical divided by that in the opposite direction, in the common usage) at 2 h, 50 µM in data set [7] is 0.29; in [11], 0.39.
Take `CCOP(=O)(OCC)N1C/C(=C\c2ccc(OC)c(OC)c2)C(=O)/C(=C/c2ccc(OC)c(OC)c2)C1`: the result in the data set on Caco-2 was inactive. Besides, the outcome in the data set with MDCK [1] was Active. For the same molecule, the Activity in the data set with MDCK [2] was 4%; in data set [3] it was “Non-toxic”. Moreover, the Papp A→B (usually the apparent permeability from the apical to the basolateral side of a cell layer) at 2 h, 50 µM in data set [4] came to 54.7 ×10⁻⁶ cm/s; in data set [8] it was 62.3 ×10⁻⁶ cm/s. Further, the results for the Papp B→A at 2 h, 50 µM in [5] and in [9] were 8.17 ×10⁻⁶ cm/s and 27.7 ×10⁻⁶ cm/s, respectively. Besides, the Ratio is on record as 6.7 in [6], 2.25 in the data set on MDCK [10], 1.14 in data set [12] and 3.39 in data set [13]. Moreover, the values for the efflux ratio at 2 h, 50 µM in data set [7] and in data set [11] were 0.15 and 0.44, respectively.
`O=C(/C=C/c1ccccc1)c1ccccc1` [CHALCONE]: the outcome with Caco-2 was inactive. For the same molecule, the result in the data set on MDCK [1] was Active. Moreover, the Activity with MDCK [2] is listed as 4%; in data set [3], “Non-toxic”. The Papp A→B at 2 h, 50 µM worked out at 2.89 ×10⁻⁶ cm/s in [4] and 3.84 ×10⁻⁶ cm/s in data set [8]. For the same molecule, the Papp B→A at 2 h, 50 µM in [5] amounted to 1.05 ×10⁻⁶ cm/s; in data set [9] it was 1.26 ×10⁻⁶ cm/s. The Ratio in data set [6] is listed as 2.75; in the data set with MDCK [10] it was 3.05; in data set [12], 1.33; in data set [13], 1.2. The efflux ratio at 2 h, 50 µM in data set [7] stood at 0.36; in [11] it was 0.33.
With `CCOC(=O)c1ccc(/C=C2\CNC/C(=C\c3ccc(C(=O)OCC)cc3)C2=O)cc1`, the outcome in the data set on Caco-2 was inactive. Moreover, the result in the data set with MDCK [1] was Active. Besides, the Activity was 4% with MDCK [2] and “Non-toxic” in data set [3]. The Papp A→B at 2 h, 50 µM worked out at 2.82 ×10⁻⁶ cm/s in data set [4] and 2.7 ×10⁻⁶ cm/s in data set [8]. The basolateral-to-apical permeability (Papp B→A) at 2 h, 50 µM in data set [5] and in data set [9] was 0.99 ×10⁻⁶ cm/s in each case. The Ratio worked out at 2.85 in [6], 2.73 in the data set on MDCK [10], 0.96 in data set [12] and 1 in data set [13]. The efflux ratio at 2 h, 50 µM in [7] came out at 0.35; in [11] it was 0.37.
In the case of `CCOP(=O)(OCC)N1C/C(=C\c2cc(OC)c(OC)c(OC)c2)C(=O)/C(=C/c2cc(OC)c(OC)c(OC)c2)C1`, the outcome in the data set on Caco-2 was inactive. In addition, the outcome in the data set with MDCK [1] was Active. The figures for the Activity (in the data set on MDCK [2]; in data set [3]) were 4% and “Non-toxic”, respectively. The figures for the Papp A→B at 2 h, 50 µM in [4] and in [8] were 28.5 ×10⁻⁶ cm/s and 105 ×10⁻⁶ cm/s, respectively. Further, the Papp B→A at 2 h, 50 µM in data set [5] came to 8.82 ×10⁻⁶ cm/s; in data set [9], 50.3 ×10⁻⁶ cm/s. The Ratio in data set [6] was 3.23; in the data set on MDCK [10], 2.08; in data set [12], 3.68; in [13] it was 5.73. Also, the efflux ratio at 2 h, 50 µM was determined as 0.31 in data set [7] and 0.48 in data set [11].
On to `CN(C)c1ccc(/C=C/C(=O)/C=C/c2ccc(N(C)C)cc2)cc1`, for which the result in the data set on Caco-2 was inactive. Also, in the data set on MDCK [1], the outcome was Active. In addition, the Activity in the data set with MDCK [2] is given as 4%; in [3], “Non-toxic”. Moreover, the Papp A→B at 2 h, 50 µM turned out to be 8.42 ×10⁻⁶ cm/s in [4] and 19.7 ×10⁻⁶ cm/s in [8]. The Papp B→A at 2 h, 50 µM in data set [5] is 7.02 ×10⁻⁶ cm/s; in [9] it was 15.9 ×10⁻⁶ cm/s. Also, the Ratio in data set [6] stood at 1.2; with MDCK [10] it was 1.24; with MDCK [14] it was 0.81; in data set [12], 2.34; in data set [13], 2.27. In addition, in data set [7], the efflux ratio at 2 h, 50 µM was 0.83.
On to `COc1ccccc1/C=C1\CNC/C(=C\c2ccccc2OC)C1=O`, for which, in the data set with Caco-2, the result was inactive. Further, the outcome with MDCK [1] was Active. Besides, the Activity with MDCK [2] is reported as 4%; in [3], “Non-toxic”. Besides, the Papp A→B at 2 h, 50 µM in [4] was determined as 32.5 ×10⁻⁶ cm/s; in data set [8] it was 28.7 ×10⁻⁶ cm/s. Further, the Papp B→A at 2 h, 50 µM was determined as 10.4 ×10⁻⁶ cm/s in data set [5] and 13.9 ×10⁻⁶ cm/s in data set [9]. Moreover, the Ratio in [6] turned out to be 3.13; with MDCK [10], 2.06; in data set [12] it was 0.88; in data set [13], 1.34. For the same molecule, the efflux ratio at 2 h, 50 µM worked out at 0.32 in [7] and 0.48 in data set [11].
Turning to `O=C1/C(=C/c2cccc(O)c2)CNC/C1=C\c1cccc(O)c1`, in the data set with Caco-2, the result was inactive. Further, in the data set with MDCK [1], the outcome was Active. In addition, the values for the Activity (in the data set on MDCK [2]; in [3]) were 4% and “Non-toxic”, respectively. The Papp A→B at 2 h, 50 µM was 15.4 ×10⁻⁶ cm/s in data set [4] and 21.9 ×10⁻⁶ cm/s in data set [8]. The Papp B→A at 2 h, 50 µM in [5] was 5.83 ×10⁻⁶ cm/s; in data set [9] it was 6.53 ×10⁻⁶ cm/s. The Ratio in data set [6] stood at 2.64; with MDCK [10] it was 3.35; in data set [12] it was 1.42; in [13], 1.12. The efflux ratio at 2 h, 50 µM in data set [7] was determined as 0.38; in data set [11], 0.3.
In the case of `O=C1/C(=C/c2ccccc2F)CNC/C1=C\c1ccccc1F`, the result with Caco-2 was inactive. Moreover, the result with MDCK [1] was Active. The results for the Activity (in the data set with MDCK [2]; in data set [3]) were 4% and “Non-toxic”, respectively. Besides, the values for the Papp A→B at 2 h, 50 µM in data set [4] and in [8] were 3.53 ×10⁻⁶ cm/s and 3.54 ×10⁻⁶ cm/s, respectively. Moreover, the results for the Papp B→A at 2 h, 50 µM in data set [5] and in [9] were 0.6 ×10⁻⁶ cm/s and 0.36 ×10⁻⁶ cm/s, respectively. Also, the Ratio in data set [6] is 5.88; in the data set with MDCK [10], 9.83; in [12] it was 1; in [13], 0.6. Further, the efflux ratio at 2 h, 50 µM in [7] stood at 0.17; in data set [11], 0.1.
With `COc1cccc(/C=C2\CNC/C(=C\c3cccc(OC)c3OC)C2=O)c1OC`, in the data set on Caco-2, the outcome was inactive. In addition, in the data set on MDCK [1], the result was Active. Further, the Activity with MDCK [2] is given as 4%; in data set [3], “Non-toxic”. The Papp A→B at 2 h, 50 µM in data set [4] turned out to be 23.4 ×10⁻⁶ cm/s; in data set [8], 14.7 ×10⁻⁶ cm/s. Further, the Papp B→A at 2 h, 50 µM in data set [5] worked out at 7.22 ×10⁻⁶ cm/s; in data set [9], 6.28 ×10⁻⁶ cm/s. The Ratio in data set [6] amounted to 3.24; in the data set on MDCK [10], 2.34; in [12], 0.63; in data set [13] it was 0.87. Further, the efflux ratio at 2 h, 50 µM was 0.31 in data set [7] and 0.43 in [11].
